According to patent publication US12578339B2, “Hexokinase 1 isoform B for use as a prognosis marker and specific target against cancer” (ISTANBUL MEDIPOL UNIVERSITESI, priority 2019, dated 2026):
Entries after “also recorded” stand apart in the source; their conditions may differ.

What was measured:
Format in all cases: cell-based, Human
[1] = test system: A549 HK1b−/− cells; test: Cell viability assay (CellTiter-Blue); conditions: 48 h treatment
Protocol: (§1) Twenty-four hours following seeding (15,000 cells/well) in a 96-well plate, A549 and A549 HK1b^−/− cells (70%-80% confluent) were treated with vehicle (PBS/Saline), or cisplatin with concentrations range from 0-100 μM/ml and the cells incubated for a further 48 h. The cell viability was determined using the CellTiter-Blue assay kit (Promega) according to the manufacturer's instructions and absorbance measured at 595 nm with a microplate reader (Model 3550, Bio-Rad Laboratories, CA, USA). IC50 was defined as the concentration causing a 50% reduction in absorbance relative to the negative control. IC50 was determined by non-linear regression analysis using Graphpad Prism v8 (Graphpad Software, CA, USA).

[2] = test system: A549 WT cells; test: Cell viability assay (CellTiter-Blue); conditions: A549 WT control group, 48 h treatment
Protocol: as §1

[3] = test system: A549 HK1b−/− cells; test: Flow cytometric quantification of cell death by propidium iodide staining; conditions: IC50 concentration (47 μM), 48 hrs
[4] = test system: A549 HK1b−/− cells; test: Immunoblot analysis of apoptotic, autophagic and survival signaling
Protocol: (§2) Cells were harvested and washed in PBS solution, collected, and then subjected to lysis in RIPA buffer containing proteinase inhibitor cocktail and phosphatase inhibitor cocktail (Roche). The lysates were subjected to centrifugation at 10,000 g at 4 C for 20 minutes and the supernatants removed. The total protein ([…]) was fractioned by 10% SDS-PAGE and electrophoretically transferred to Immobilon-FL PVDF membranes. The membrane was blocked with blocking buffer (Li-Cor) at room temperature for 1 hour, and then incubated with appropriate primary antibody at 4 C overnight. After washing with PBS containing 0.05% […] (PBST), the membrane was incubated with 1:2500 dilutions of appropriate secondary antibody for 2 hours at room temperature. The membrane was washed with PBST again, and Pierce ECL Western Blotting Substrate (Thermo Scientific) was used for development of immunoreactive bands. For immunoblotting of tissue samples, proteins were extracted from tumor and adjacent non-tumor lung samples collected from human NSCLC patients, snap frozen in liquid nitrogen, and stored at −80° C. Then protein lysis buffer (described above) was added to samples. Samples were vortexed, homogenized and subjected to three freeze/thaw cycles in dry ice, centrifuged and supernatant collected, and stored at −80° C. for subsequent immunoblotting.

[5] = test system: A549 WT cells; test: as above
Protocol: as §2

[6] = test system: A549 HK1b−/− cells; test: Seahorse XF glycolysis stress test (ECAR); conditions: treated A549 HK1b−/− cells
Protocol: (§3) For Seahorse XFe96 assays, cells were seeded at pre-optimized final concentration 1.5×10^4 cells/well onto Seahorse XF-96-well plates and Glycolytic rate, Glycolysis stress and Mito Stress Tests were performed following the manufacturer's specifications (Seahorse Bioscience, North Billerica, MA). Each datum was determined minimally in triplicate. OCR and ECAR were reported as absolute rates (pmoles/min for OCR and mpH/min for ECAR) or normalized against cell counts, or expressed as a percentage of the baseline oxygen consumption.

[7] = test system: A549 HK1b−/− cells; test: Seahorse Mito Stress Test (OCR); conditions: between treated A549 WT and A549 HK1b−/− cells
Protocol: as §3

[8] = test system: A549 WT cells; test: Seahorse Mito Stress Test (OCR); conditions: treated A549 WT cells, p=0.02
Protocol: as §3

[9] = test system: A549 HK1b−/− cells; test: Flow cytometric analysis of mTOR activation; conditions: flow cytometry, HK1b deletion plus treatment, p=0.001

N.N.[Cl][Pt][Cl] [cisplatin, Cisplatin]
IC50 [1]: 47 µM | IC50 [2]: 75 µM | cell death measured by propidium iodide (PI) staining [3]: significantly enhance cell death | induction of cleavage of PARP and caspase 3 ([4]; A549 HK1b−/− cells compared with A549 WT): significantly higher | autophagy induction (LC3II) ([4]; HK1b deletion plus treatment): induces greater autophagy | phosphorylation of STAT3 transcription factor ([4]; HK1b deletion plus treatment): inhibit significantly | AKT activation and its downstream target GSK3β ([4]; HK1b silencing in combination with treatment): totally inhibited | beclin-1 and ATG13 expression levels ([4]; both A549 WT and A549 HK1b−/− cells): downregulated | phosphorylation of mTOR ([4]; immunoblot, HK1b deletion plus treatment): inhibits significantly; also recorded: inhibits phosphorylation | AMPK phosphorylation ([4]; treated A549 HK1b−/− cells): totally inhibited | Bcl-2 expression ([4]; treated A549 HK1b−/− cells): down-regulation of Bcl-2 expression was significant | HK2 expression ([4]; treated A549 HK1b−/− cells): reduced | cleavage of PARP and caspase 3 ([5]; immunoblot, A549 WT (and HK1b−/−) cells): induces cleavage of PARP and caspase 3 | AMPK phosphorylation ([5]; treated A549 WT cells): diminished | HK1 expression ([5]; treated A549 WT cells): significantly upregulated | basal glycolysis and glycolytic capacity (ECAR) [6]: further reduction of basal glycolysis and glycolytic capacity even though not significant; also recorded: further reduced ablait not significant | glycolytic reserve [6]: total absence | basal respiration rate [7]: no significant change | spare respiratory capacity [8]: diminished | mTOR phosphorylation [9]: significantly inhibits
